Data from patent US8110687B2, “Bicyclic compounds with kinase inhibitory activity” (Millennium Pharmaceuticals, Inc., priority 2005, dated 2012).

What follows are compounds tested on phospho-ERK formation (Raf kinase activity) in A375 cells (assay: Phospho-ERK ELISA assay). Settings: Homo sapiens, A-375, 3 h, 3 hours with inhibitor, read-out: IC50, inhibition of the formation of phospho-ERK.
Format: cell-based
Experimental: Inhibition of Raf kinase activity in whole cell systems can be assessed by determining the decrease in phosphorylation of Raf kinase substrates. Any known Raf kinase substrate can be used to measure inhibition of Raf kinase activity in a whole cell system.
Medium was removed, and cells were incubated with Raf kinase inhibitors for 3 hours at 37° C. Medium was removed, and cells were fixed with 4% paraformaldehyde for 15 minutes at room temperature.
Methanol was added for 15 min. Cells were removed and blocked with 10% sheep serum and 1% BSA in PBS overnight at 4° C. Cells were incubated with anti-p44/42MAPK antibody (1:100, Cell Signaling Technologies, #9101L) (20 μL/well) for one hour at room temperature. After washing with PBS three times, cells were stained with anti-rabbit horseradish peroxidase-linked antibody from donkey (1:100, Amersham Bioscience #NA934V) for 1 hour at room temperature. Cells were washed three times with 0.5% Tween-20 in PBS and twice with PBS. 3,3′, 5,5′-Tetramethylbenzidine (TMB) liquid substrate system (Sigma, #T8665) (50 μL/well) was added, and cells were incubated for 30-45 minutes at room temperature. Optical density was read at 650 nm. Cells were then washed 3-5 times with PBS to remove color solution. Results were normalized for the protein content in each well using a BCA protein assay kit (Pierce).

SMILES | IC50 [µM]
CNC(=O)c1cc(Oc2ccc3c(c2)CC(C(=O)Nc2ccc(CN4CCCC4)c(C(F)(F)F)c2)CC3)ccn1 (centres unmarked) [Compound I-129, N-methyl-4-{[7-({[4-(pyrrolidin-1-ylmethyl)-3-(trifluoromethyl)phenyl]amino}carbonyl)-5,6,7,8-tetrahydronaphthalen-2-yl]oxy}pyridine-2-carboxamide] | ≤ 25
CNC(=O)c1cc(Oc2ccc3c(c2)CC(C(=O)Nc2ccc(CCN)cc2)CC3)ccn1 (centres unmarked) [Compound I-29, 4-{[7-({[4-(2-aminoethyl)phenyl]amino}carbonyl)-5,6,7,8-tetrahydronaphthalen-2-yl]oxy}-N-methylpyridine-2-carboxamide] | ≤ 25
CNC(=O)c1cc(Oc2ccc3c(c2)CC(C(=O)Nc2ccc(CN)cc2)CC3)ccn1 (centres unmarked) [Compound I-42, 4-{[7-({[4-(aminomethyl)phenyl]amino}carbonyl)-5,6,7,8-tetrahydronaphthalen-2-yl]oxy}-N-methylpyridine-2-carboxamide] | ≤ 25
CC(C)NC(=O)c1cc(Oc2ccc3c(c2)CC(C(=O)Nc2cc(CN)cc(C(F)(F)F)c2)CC3)ccn1 (centres unmarked) [Compound I-229, 4-{[7-({[3-(aminomethyl)-5-(trifluoromethyl)phenyl]amino}carbonyl)-5,6,7,8-tetrahydronaphthalen-2-yl]oxy}-N-isopropylpyridine-2-carboxamide] | ≤ 25
NCc1cc(NC(=O)C2CCc3ccc(Oc4ccnc(-n5ccnc5)c4)cc3C2)cc(C(F)(F)F)c1 (centres unmarked) [Compound I-205, N-[3-(aminomethyl)-5-(trifluoromethyl)phenyl]-7-{[2-(1H-imidazol-1-yl)pyridin-4-yl]oxy}-1,2,3,4-tetrahydronaphthalene-2-carboxamide] | ≤ 25
NCc1cc(NC(=O)C2CCc3ccc(Oc4ccnc(C(=O)N5CCCC5)c4)cc3C2)cc(C(F)(F)F)c1 (centres unmarked) [Compound I-362, N-[3-(aminomethyl)-5-(trifluoromethyl)phenyl]-7-{[2-(pyrrolidin-1-ylcarbonyl)pyridin-4-yl]oxy}-1,2,3,4-tetrahydronaphthalene-2-carboxamide] | ≤ 25
Cn1cc(-c2cc(Oc3ccc4c(c3)CC(C(=O)Nc3cc(CN5CCCC5)cc(C(F)(F)F)c3)CC4)ccn2)cn1 (centres unmarked) [Compound I-344, 7-{[2-(1-methyl-1H-pyrazol-4-yl)pyridin-4-yl]oxy}-N-[3-(pyrrolidin-1-ylmethyl)-5-(trifluoromethyl)phenyl]-1,2,3,4-tetrahydronaphthalene-2-carboxamide] | ≤ 25
Nc1cc(Oc2ccc3ccc(C(=O)Nc4ccc(Cl)c(C(F)(F)F)c4)cc3c2)ccn1 [Compound I-162, 7-[(2-aminopyridin-4-yl)oxy]-N-[4-chloro-3-(trifluoromethyl)phenyl]-2-naphthamide] | ≤ 25
O=C(Nc1cc(C(F)(F)F)ccc1OCCN1CCNCC1)C1CCc2ccc(Oc3ccnc(C4=NCCN4)c3)cc2C1 (centres unmarked) [Compound I-261, 7-{[2-(4,5-dihydro-1H-imidazol-2-yl)pyridin-4-yl]oxy}-N-[2-(2-piperazin-1-ylethoxy)-5-(trifluoromethyl)phenyl]-1,2,3,4-tetrahydronaphthalene-2-carboxamide] | ≤ 25
CN(C)CC(=O)Nc1cc(Oc2ccc3ccc(C(=O)Nc4ccc(Cl)c(C(F)(F)F)c4)cc3c2)ccn1 [Compound I-138, N-[4-chloro-3-(trifluoromethyl)phenyl]-7-[(2-{[(dimethylamino)acetyl]amino}pyridin-4-yl)oxy]-2-naphthamide] | ≤ 25
NCc1cc(NC(=O)C2CCc3ccc(Oc4ccnc(-c5cnco5)c4)cc3C2)cc(C(F)(F)F)c1 (centres unmarked) [Compound I-210, N-[3-(aminomethyl)-5-(trifluoromethyl)phenyl]-7-{[2-(1,3-oxazol-5-yl)pyridin-4-yl]oxy}-1,2,3,4-tetrahydronaphthalene-2-carboxamide] | ≤ 25
CC(C)(C)c1cccc(NC(=O)c2ccc3ccc(Oc4ccnc(C(=N)N5CCCC5)c4)cc3c2)c1 [Compound I-93, N-(3-tert-butylphenyl)-7-({2-[imino(pyrrolidin-1-yl)methyl]pyridin-4-yl}oxy)-2-naphthamide] | ≤ 25
CC(=O)Nc1cc(Oc2ccc3c(c2)CC(C(=O)Nc2ccc(C(F)(F)F)cc2)CC3)ccn1 (centres unmarked) [Compound I-281, 7-{[2-(acetylamino)pyridin-4-yl]oxy}-N-[4-(trifluoromethyl)phenyl]-1,2,3,4-tetrahydronaphthalene-2-carboxamide] | ≤ 25
NCc1cc(NC(=O)C2CCc3ccc(Oc4ccnc(N)c4)cc3C2)cc(C(F)(F)F)c1 (centres unmarked) [Compound I-271, N-[3-(aminomethyl)-5-(trifluoromethyl)phenyl]-7-[(2-aminopyridin-4-yl)oxy]-1,2,3,4-tetrahydronaphthalene-2-carboxamide] | ≤ 25
O=C(Nc1ccc(Cl)c(C(F)(F)F)c1)c1ccc2ccc(Oc3ccnc(C4=NCCN4)c3)cc2n1 [Compound I-45, N-[4-chloro-3-(trifluoromethyl)phenyl]-7-{[2-(4,5-dihydro-1H-imidazol-2-yl)pyridin-4-yl]oxy}quinoline-2-carboxamide] | ≤ 25
O=C(Nc1cc(OC2CCNCC2)cc(C(F)(F)F)c1)c1ccc2ccc(Oc3ccnc(C4=NCCN4)c3)cc2c1 [Compound I-48, 7-{[2-(4,5-dihydro-1H-imidazol-2-yl)pyridin-4-yl]oxy}-N-[3-(piperidin-4-yloxy)-5-(trifluoromethyl)phenyl]-2-naphthamide] | ≤ 25
CNC(=O)c1cc(Oc2ccc3c(c2)C[C@H](C(=O)Nc2cc(CN)cc(C(F)(F)F)c2)CC3)ccn1 [Compound I-244, 4-{[(7R)-7-({[3-(aminomethyl)-5-(trifluoromethyl)phenyl]amino}carbonyl)-5,6,7,8-tetrahydronaphthalen-2-yl]oxy}-N-methylpyridine-2-carboxamide] | ≤ 25
CNC(=O)c1cc(Oc2ccc3ncc(C(=O)Nc4ccc(CN)c(C(F)(F)F)c4)cc3c2)ccn1 [Compound I-161, N-[4-(aminomethyl)-3-(trifluoromethyl)phenyl]-6-({2-[(methylamino)carbonyl]pyridin-4-yl}oxy)quinoline-3-carboxamide] | ≤ 25
CNC(=O)c1cc(Oc2ccc3c(c2)CC(NC(=O)c2cccc(C(C)(C)C)c2)CC3)ccn1 (centres unmarked) [Compound I-460, 4-({7-[(3-tert-butylbenzoyl)amino]-5,6,7,8-tetrahydronaphthalen-2-yl}oxy)-N-methylpyridine-2-carboxamide] | ≤ 25

More lines, now with the values ahead:

IC50 [µM] | SMILES
≤ 25 | CC(C)(C)c1cccc(NC(=O)C2COc3ccc(Oc4ccnc(C5=NCCN5)c4)cc3C2)c1 (centres unmarked) [Compound I-349, N-(3-tert-butylphenyl)-6-{[2-(4,5-dihydro-1H-imidazol-2-yl)pyridin-4-yl]oxy}chromane-3-carboxamide]
≤ 25 | CC(C)(C)c1cccc(NC(=O)c2ccc3ccc(Oc4ccnc(C(=N)N5CCOCC5)c4)cc3c2)c1 [Compound I-99, N-(3-tert-butylphenyl)-7-({2-[imino(morpholin-4-yl)methyl]pyridin-4-yl}oxy)-2-naphthamide]
≤ 25 | O=C(Nc1ccc(Cl)c(C(F)(F)F)c1)c1ccc2ccc(Oc3ccnc(C4=NCCN4)c3)cc2c1 [Compound I-46, N-[4-chloro-3-(trifluoromethyl)phenyl]-7-{[2-(4,5-dihydro-1H-imidazol-2-yl)pyridin-4-yl]oxy}-2-naphthamide]
≤ 25 | CC(C)(C)c1cccc(NC(=O)C2CCc3ccc(Oc4ccnc(-c5nc(C(=O)O)c[nH]5)c4)cc3C2)c1 (centres unmarked) [Compound I-155, 2-{4-[(7-{[(3-tert-Butylphenyl)amino]carbonyl}-5,6,7,8-tetrahydronaphthalen-2-yl)oxy]pyridin-2-yl}-1H-imidazole-4-carboxylic acid]
≤ 25 | CC(C)(C)c1cccc(NC(=O)C2CCc3ccc(Oc4ccnc(CN)c4)cc3C2)c1 (centres unmarked) [Compound I-331, 7-{[2-(aminomethyl)pyridin-4-yl]oxy}-N-(3-tert-butylphenyl)-1,2,3,4-tetrahydronaphthalene-2-carboxamide]
≤ 25 | CC(C)(C)c1cccc(NC(=O)c2cnc3ccc(Oc4ccnc(C#N)c4)cc3c2)c1 [Compound I-448, N-(3-tert-butylphenyl)-6-[(2-cyanopyridin-4-yl)oxy]quinoline-3-carboxamide]
≤ 25 | CC(C)(C)c1cccc(NC(=O)C2CCc3ccc(Oc4ccnc(N)c4)cc3C2)c1 (centres unmarked) [Compound I-235, 7-[(2-aminopyridin-4-yl)oxy]-N-(3-tert-butylphenyl)-1,2,3,4-tetrahydronaphthalene-2-carboxamide]
≤ 25 | CC(=O)NCc1cc(Oc2ccc3c(c2)CC(C(=O)Nc2cccc(C(C)(C)C)c2)CC3)ccn1 (centres unmarked) [Compound I-246, 7-({2-[(acetylamino)methyl]pyridin-4-yl}oxy)-N-(3-tert-butylphenyl)-1,2,3,4-tetrahydronaphthalene-2-carboxamide]
≤ 25 | CN1CCN(c2cc(Oc3ccc4c(c3)CC(C(=O)Nc3cccc(C(C)(C)C)c3)CC4)ccn2)CC1 (centres unmarked) [Compound I-415, N-(3-tert-butylphenyl)-7-{[2-(4-methylpiperazin-1-yl)pyridin-4-yl]oxy}-1,2,3,4-tetrahydronaphthalene-2-carboxamide]
≤ 25 | O=C(Nc1ccc(Cl)c(C(F)(F)F)c1)C1Cc2cc(Oc3ccnc(C4=NCCN4)c3)ccc2CN1 (centres unmarked) [Compound I-54, N-[4-chloro-3-(trifluoromethyl)phenyl]-6-{[2-(4,5-dihydro-1H-imidazol-2-yl)pyridin-4-yl]oxy}-1,2,3,4-tetrahydroisoquinoline-3-carboxamide]
